The subject of one data set is malignant tumors. The data set can be described thus: antitumor activity in vivo (general statements). Particulars: summary statements.
Data set [1] is described as follows: toxicity in tumor bearing animals. Type of data set: in vivo. Particulars: dosages up to 2000 mg/Kg, toxicity day. An excerpt:
In a host which has been diagnosed as being terminally ill with a malignant tumor excessive amounts beyond any toxicity range might be indicated if there is any probability of cure of the terminally ill host as is commonly practiced in current cancer chemotherapy.

Each structure is given as a SMILES string. Entries after “also recorded” stand apart in the source; their conditions may differ.

Regarding `NC(=O)c1csc([C@@H]2O[C@H](CO)[C@@H](O)[C@H]2O)n1` [Compound 1, 2-β-D-Ribofuranosylthiazole-4-Carboxamide], the antitumor activity result in the data set on malignant tumors was “effective in vivo antitumor agents”; with malignant tumors (listed as 2-β-D-ribofuranosylthiazole-4-carboxamide) it was “positive antitumor activity; also recorded: significant antitumor activity in vivo”. In data set [1], the “deaths attributed to toxicity” value is given as “no deaths of the animals were attributed to the toxicity”.

The values are drawn from US4680285A, “Treatment of malignant tumors with 2-(β-D-ribofuranosylthiazole-4-carboxamide related compounds” (priority 1985, dated 1987).
